Data reported in patent US4816472A, “Derivatives of 19,20-Bis-nor-prostanoic acid with antiulcer and anorectic activity, process for their preparation and pharmaceutical compositions thereof” (Istituto Biochemico Italiano Giovanni Lorenzini S.p.A., priority 1985, dated 1989).
Counter-ions that a name gives are not always drawn.

System: peptic ulcer
Assay: not given
Settings: previous finding; cited from earlier work

In the case of `CCCCCCC1CCC(O)C1CCCCCCC(=O)O` (stereo not drawn) [Rosaprostol, 9-hydroxy-91,20-bis-nor-prostanoic acid sodium salt], the “antiulcer properties of the natural prostaglandins / other prostaglandin properties” value is listed as “maintaining the antiulcer properties of the natural prostaglandins, completely loses the others”.

System: aspirin-induced ulcers in the rat
Assay: Aspirin induced gastric ulcers in the rat
Assay type: in vivo
Settings: 200 mg/kg of drug
Protocol: The anitulcer activity of these derivatives was evaluated on ulcers induced by the administration of ethanol, hydrochloric acid and sodium hydroxide in the rat, also on gastric ulcers induced by aspirin in the rat, and on their influence on gastric secretions in the rat.
(4) Aspirin induced gastric ulcers in the rat:
For carrying out this test, the method described by H. A. Carmichael, L. M. Nelson, R. I. Russel in Gastroenterology 74, 1229 (1978) is used, the disclosure of which is incorporated herein by reference.

Compared with `CCCCCCC1CCC(N(C)C)C1CCCCCCC(=O)O` (stereo not drawn) [drawing 28], `CCCCCCC1CCC(O)C1CCCCCCC(=O)O` (stereo not drawn) [drawing 31] is lower in “Percent inhibition of aspirin-induced ulcers in the rat” value (shortened to “Percent inhibition”): 88% for the first, 64% for the second.

First: CCCCCCC1CCC(N)C1CCCCCCC(=O)O (stereo not drawn) [drawing 26]
Second: CCCCCCC1CCC(NC)C1CCCCCCC(=O)O (stereo not drawn) [drawing 27]
The “Percent inhibition” value of the first is lower: 72% for the first, 87% for the second.

In the case of `CCCCCCC1CCC(NC(C)=O)C1CCCCCCC(=O)O` (stereo not drawn) [drawing 30], the “Percent inhibition” value is reported as 58%.
